The term IC50 denotes the point on the concentration scale where inhibition reaches its midpoint.

This passage reports IC50 results from ChEMBL document CHEMBL5727042, “Heteroaromatic compounds as BTK inhibitors” (2018).

The target in the assay is T1, Tyrosine-protein kinase Tec (Homo sapiens, UniProt P42680).
T1 sequence (P42680 whole entry): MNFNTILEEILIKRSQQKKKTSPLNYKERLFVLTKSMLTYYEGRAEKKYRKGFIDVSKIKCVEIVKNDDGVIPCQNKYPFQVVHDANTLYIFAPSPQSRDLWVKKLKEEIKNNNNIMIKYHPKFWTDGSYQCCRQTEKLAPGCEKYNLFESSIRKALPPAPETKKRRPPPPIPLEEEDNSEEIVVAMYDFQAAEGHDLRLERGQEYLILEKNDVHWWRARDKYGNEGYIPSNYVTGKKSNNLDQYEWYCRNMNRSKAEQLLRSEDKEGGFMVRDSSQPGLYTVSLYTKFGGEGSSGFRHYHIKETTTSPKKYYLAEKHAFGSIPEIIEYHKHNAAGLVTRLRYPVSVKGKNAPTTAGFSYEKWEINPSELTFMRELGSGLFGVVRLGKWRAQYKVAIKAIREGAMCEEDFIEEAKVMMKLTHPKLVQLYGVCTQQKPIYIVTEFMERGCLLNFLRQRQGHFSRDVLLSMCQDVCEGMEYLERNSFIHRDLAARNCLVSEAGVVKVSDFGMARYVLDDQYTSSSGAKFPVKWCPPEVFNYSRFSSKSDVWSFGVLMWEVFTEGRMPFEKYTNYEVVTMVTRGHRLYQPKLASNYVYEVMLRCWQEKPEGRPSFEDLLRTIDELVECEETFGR
Put plainly: Lanthscreen Eu Kinase Binding Assay : Lanthscreen Eu Kinase Binding assay […] is performed as described above for BTK except that 1 nM human recombinant full length TEC (His-tagged) kinase and 1 nM Alexa Fluor647-labeled Kinase Tracer #178 were used instead.Representative compounds of the present invention are assessed for inhibition of BTK, BMX, and TXK measuring phosphorylation of a ….
As to `CC#CC(=O)N1CC[C@]2(C1)C[C@H](n1nc(-c3cnn(Cc4ccc(Cl)c(C(F)(F)F)c4)c3)c(C(N)=O)c1N)C2`, the IC50 is 38 nM.
Consider `CC#CC(=O)N1CC[C@]2(C1)C[C@H](n1nc(-c3cnn(Cc4cc(C(F)(F)F)ccc4Cl)c3)c(C(N)=O)c1N)C2`, for which the IC50 was 130 nM.
`CC#CC(=O)N1CC[C@]2(C1)C[C@H](n1nc(-c3cnn(Cc4cc(C(F)(F)F)ccc4OC)c3)c(C(N)=O)c1N)C2`: the IC50 came out at 1200 nM.
With `CC#CC(=O)N1CC[C@]2(C1)C[C@H](n1nc(-c3cnn(Cc4cccc(C(F)(F)F)c4Cl)c3)c(C(N)=O)c1N)C2`, the IC50 was 45 nM.
